Measured values published in ChEMBL document CHEMBL4507274 (2021).

Tests used:
[1] = molecular target: Bone morphogenetic protein receptor type-1B (Homo sapiens) (UniProt O00238); details: Compound concentration 100.0 nM
[2] = molecular target: Serine/threonine-protein kinase PLK4 (Homo sapiens) (UniProt O00444); details: Compound concentration 100.0 nM
[3] = molecular target: Calcium/calmodulin-dependent protein kinase type 1G (Homo sapiens) (UniProt Q96NX5); details: Compound concentration 100.0 nM
[4] = tested on: Receptor-type tyrosine-protein kinase FLT3 (Homo sapiens), P36888 [UNDEFINED MUTATION]; details: Compound concentration 100.0 nM
[5] = molecular target: D(2) dopamine receptor (Homo sapiens) (UniProt P14416); details: Compound concentration 10.0 uM
[6] = molecular target: Receptor-type tyrosine-protein kinase FLT3 (Homo sapiens) (UniProt P36888); details: Compound concentration 100.0 nM
[7] = molecular target: Beta-1 adrenergic receptor (Homo sapiens) (UniProt P08588); details: Compound concentration 10.0 uM
[8] = molecular target: T1, Serine/threonine-protein kinase 3 (Homo sapiens) (UniProt Q13188); details: Compound concentration 100.0 nM
T1 sequence (whole entry): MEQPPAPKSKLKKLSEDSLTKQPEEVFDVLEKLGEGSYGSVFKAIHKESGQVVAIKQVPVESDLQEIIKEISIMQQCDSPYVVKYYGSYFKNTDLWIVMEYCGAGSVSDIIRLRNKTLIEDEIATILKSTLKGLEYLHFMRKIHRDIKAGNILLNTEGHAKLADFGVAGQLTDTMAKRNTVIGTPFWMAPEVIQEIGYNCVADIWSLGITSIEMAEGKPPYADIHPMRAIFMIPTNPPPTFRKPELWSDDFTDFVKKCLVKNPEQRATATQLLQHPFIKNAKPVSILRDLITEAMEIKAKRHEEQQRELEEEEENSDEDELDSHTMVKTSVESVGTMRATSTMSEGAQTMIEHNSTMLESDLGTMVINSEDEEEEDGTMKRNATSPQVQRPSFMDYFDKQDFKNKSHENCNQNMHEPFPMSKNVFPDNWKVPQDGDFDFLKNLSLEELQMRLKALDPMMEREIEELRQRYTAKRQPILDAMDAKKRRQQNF

[9] = molecular target: Ribosomal protein S6 kinase alpha-6 (Homo sapiens) (UniProt Q9UK32); details: Compound concentration 100.0 nM
[10] = tested on: Tyrosine-protein kinase ABL1 (Homo sapiens), P00519 [E255K]; details: Compound concentration 100.0 nM
[11] = molecular target: Phosphatidylinositol 3-kinase catalytic subunit type 3 (Homo sapiens) (UniProt Q8NEB9); details: Compound concentration 100.0 nM
[12] = molecular target: Calcium-dependent protein kinase 1 (Plasmodium falciparum) (UniProt P62344); details: Compound concentration 100.0 nM
[13] = molecular target: Dual specificity tyrosine-phosphorylation-regulated kinase 2 (Homo sapiens) (UniProt Q92630); details: Compound concentration 100.0 nM
[14] = molecular target: Tyrosine-protein kinase Mer (Homo sapiens) (UniProt Q12866); details: Compound concentration 100.0 nM
[15] = molecular target: Aurora kinase B (Homo sapiens) (UniProt Q96GD4); details: Compound concentration 100.0 nM
[16] = molecular target: Ephrin type-A receptor 2 (Homo sapiens) (UniProt P29317); details: Compound concentration 100.0 nM
[17] = molecular target: T2, Tyrosine-protein kinase ZAP-70 (Homo sapiens) (UniProt P43403); details: Compound concentration 100.0 nM
T2 sequence (whole entry): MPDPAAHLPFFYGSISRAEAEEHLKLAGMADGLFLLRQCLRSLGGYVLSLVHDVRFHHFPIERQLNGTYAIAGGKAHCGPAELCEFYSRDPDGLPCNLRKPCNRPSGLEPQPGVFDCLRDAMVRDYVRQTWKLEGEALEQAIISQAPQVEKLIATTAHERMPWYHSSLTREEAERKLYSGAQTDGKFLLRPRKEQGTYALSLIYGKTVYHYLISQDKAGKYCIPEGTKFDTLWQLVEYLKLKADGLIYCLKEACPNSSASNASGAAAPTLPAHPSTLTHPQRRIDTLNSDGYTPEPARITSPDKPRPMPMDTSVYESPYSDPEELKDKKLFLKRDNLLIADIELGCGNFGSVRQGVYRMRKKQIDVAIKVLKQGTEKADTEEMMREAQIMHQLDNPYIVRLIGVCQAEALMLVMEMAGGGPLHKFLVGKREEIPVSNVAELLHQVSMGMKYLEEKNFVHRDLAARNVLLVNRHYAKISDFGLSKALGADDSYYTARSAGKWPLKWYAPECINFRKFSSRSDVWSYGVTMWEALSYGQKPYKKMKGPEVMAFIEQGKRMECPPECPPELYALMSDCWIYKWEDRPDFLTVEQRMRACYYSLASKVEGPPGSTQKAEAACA

[18] = molecular target: T3, Mitogen-activated protein kinase 12 (Homo sapiens) (UniProt P53778); details: Compound concentration 100.0 nM
T3 sequence (whole entry): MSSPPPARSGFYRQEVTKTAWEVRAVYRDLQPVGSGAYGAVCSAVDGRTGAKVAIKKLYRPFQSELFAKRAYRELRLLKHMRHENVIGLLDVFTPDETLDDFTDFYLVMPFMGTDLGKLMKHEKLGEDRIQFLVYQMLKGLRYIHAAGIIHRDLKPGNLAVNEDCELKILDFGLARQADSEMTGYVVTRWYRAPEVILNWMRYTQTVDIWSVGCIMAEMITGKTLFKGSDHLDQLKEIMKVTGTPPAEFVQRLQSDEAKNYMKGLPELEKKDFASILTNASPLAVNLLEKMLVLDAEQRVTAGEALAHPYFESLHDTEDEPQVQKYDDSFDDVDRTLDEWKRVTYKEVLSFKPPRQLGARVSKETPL

[19] = tested on: Tyrosine-protein kinase ABL1 (Homo sapiens), P00519 [F317I]; details: Compound concentration 100.0 nM
[20] = tested on: Mast/stem cell growth factor receptor Kit (Homo sapiens), P10721 [D816H]; details: Compound concentration 100.0 nM
[21] = molecular target: Serine/threonine-protein kinase PAK 4 (Homo sapiens) (UniProt O96013); details: Compound concentration 100.0 nM
[22] = molecular target: Phosphatidylinositol 4,5-bisphosphate 3-kinase catalytic subunit beta isoform (Homo sapiens) (UniProt P42338); details: Compound concentration 100.0 nM
[23] = molecular target: Receptor tyrosine-protein kinase erbB-3 (Homo sapiens) (UniProt P21860); details: Compound concentration 100.0 nM
[24] = molecular target: RAC-gamma serine/threonine-protein kinase (Homo sapiens) (UniProt Q9Y243); details: Compound concentration 100.0 nM
[25] = molecular target: Cyclin-dependent kinase 7 (Homo sapiens) (UniProt P50613); details: Compound concentration 100.0 nM

Chain of D(2) dopamine receptor (Homo sapiens) (P14416 whole entry): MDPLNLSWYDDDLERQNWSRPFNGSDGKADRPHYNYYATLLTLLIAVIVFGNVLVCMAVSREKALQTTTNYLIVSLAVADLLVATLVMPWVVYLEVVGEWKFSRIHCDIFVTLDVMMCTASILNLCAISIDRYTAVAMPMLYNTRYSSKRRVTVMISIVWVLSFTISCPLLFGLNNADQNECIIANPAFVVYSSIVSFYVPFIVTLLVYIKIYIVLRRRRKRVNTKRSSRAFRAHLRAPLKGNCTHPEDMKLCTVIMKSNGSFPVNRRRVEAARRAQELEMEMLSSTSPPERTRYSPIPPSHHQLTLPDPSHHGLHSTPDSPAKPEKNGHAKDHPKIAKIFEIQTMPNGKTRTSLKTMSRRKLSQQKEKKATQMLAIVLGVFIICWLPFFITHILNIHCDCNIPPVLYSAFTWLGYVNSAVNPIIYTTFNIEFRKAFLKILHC
Chain of Tyrosine-protein kinase Mer (Homo sapiens) (Q12866 whole entry): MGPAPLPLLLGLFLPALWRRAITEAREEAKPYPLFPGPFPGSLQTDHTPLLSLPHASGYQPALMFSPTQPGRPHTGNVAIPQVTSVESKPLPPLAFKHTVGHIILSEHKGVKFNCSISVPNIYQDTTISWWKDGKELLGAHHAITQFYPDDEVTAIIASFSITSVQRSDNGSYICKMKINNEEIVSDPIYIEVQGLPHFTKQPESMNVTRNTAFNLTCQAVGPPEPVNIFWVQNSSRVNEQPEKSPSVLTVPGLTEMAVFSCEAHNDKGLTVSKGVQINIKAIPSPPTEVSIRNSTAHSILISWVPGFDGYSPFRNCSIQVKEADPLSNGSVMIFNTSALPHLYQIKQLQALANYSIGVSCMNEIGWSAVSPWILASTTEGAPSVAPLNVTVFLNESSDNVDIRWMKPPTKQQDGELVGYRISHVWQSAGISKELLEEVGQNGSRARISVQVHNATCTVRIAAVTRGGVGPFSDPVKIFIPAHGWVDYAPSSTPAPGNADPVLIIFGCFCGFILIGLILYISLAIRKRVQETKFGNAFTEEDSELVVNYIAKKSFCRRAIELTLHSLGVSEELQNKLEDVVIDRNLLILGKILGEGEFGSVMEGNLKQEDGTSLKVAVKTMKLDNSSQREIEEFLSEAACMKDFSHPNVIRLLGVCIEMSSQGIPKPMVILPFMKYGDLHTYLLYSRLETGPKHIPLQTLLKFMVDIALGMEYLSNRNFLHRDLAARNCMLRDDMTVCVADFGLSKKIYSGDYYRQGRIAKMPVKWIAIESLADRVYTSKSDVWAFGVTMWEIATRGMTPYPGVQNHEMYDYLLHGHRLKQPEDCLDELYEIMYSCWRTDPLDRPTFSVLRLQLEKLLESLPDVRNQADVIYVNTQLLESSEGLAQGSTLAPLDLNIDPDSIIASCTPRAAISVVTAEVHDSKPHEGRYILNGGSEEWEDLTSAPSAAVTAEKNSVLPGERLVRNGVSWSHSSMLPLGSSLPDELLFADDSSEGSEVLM
Chain of Mast/stem cell growth factor receptor Kit (Homo sapiens), P10721 [D816H] (P10721 whole entry D816H): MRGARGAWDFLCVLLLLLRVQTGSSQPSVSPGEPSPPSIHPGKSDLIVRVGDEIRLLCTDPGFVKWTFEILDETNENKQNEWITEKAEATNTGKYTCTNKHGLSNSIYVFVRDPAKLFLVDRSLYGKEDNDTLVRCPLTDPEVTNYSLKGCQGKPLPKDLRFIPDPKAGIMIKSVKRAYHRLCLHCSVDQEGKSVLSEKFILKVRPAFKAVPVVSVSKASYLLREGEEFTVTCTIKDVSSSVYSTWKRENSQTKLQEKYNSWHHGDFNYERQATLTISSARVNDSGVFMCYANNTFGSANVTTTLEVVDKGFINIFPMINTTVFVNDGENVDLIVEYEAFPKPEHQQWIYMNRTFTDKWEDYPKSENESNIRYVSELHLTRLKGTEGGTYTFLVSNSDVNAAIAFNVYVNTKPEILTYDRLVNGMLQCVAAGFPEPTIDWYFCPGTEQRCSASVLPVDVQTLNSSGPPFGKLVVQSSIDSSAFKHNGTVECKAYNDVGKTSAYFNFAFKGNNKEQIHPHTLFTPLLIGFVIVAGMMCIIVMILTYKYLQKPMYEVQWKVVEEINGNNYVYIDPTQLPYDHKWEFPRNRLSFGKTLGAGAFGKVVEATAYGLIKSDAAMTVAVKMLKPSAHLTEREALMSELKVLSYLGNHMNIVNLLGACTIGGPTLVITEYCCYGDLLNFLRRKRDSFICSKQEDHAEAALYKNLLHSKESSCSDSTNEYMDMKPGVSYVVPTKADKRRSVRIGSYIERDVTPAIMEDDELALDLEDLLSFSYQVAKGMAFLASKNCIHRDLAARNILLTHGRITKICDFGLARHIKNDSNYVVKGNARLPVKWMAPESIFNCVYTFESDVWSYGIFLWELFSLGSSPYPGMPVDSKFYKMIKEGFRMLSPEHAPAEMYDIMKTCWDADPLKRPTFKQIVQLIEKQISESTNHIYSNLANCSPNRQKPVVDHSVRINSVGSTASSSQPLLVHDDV
Chain of Bone morphogenetic protein receptor type-1B (Homo sapiens) (O00238 whole entry): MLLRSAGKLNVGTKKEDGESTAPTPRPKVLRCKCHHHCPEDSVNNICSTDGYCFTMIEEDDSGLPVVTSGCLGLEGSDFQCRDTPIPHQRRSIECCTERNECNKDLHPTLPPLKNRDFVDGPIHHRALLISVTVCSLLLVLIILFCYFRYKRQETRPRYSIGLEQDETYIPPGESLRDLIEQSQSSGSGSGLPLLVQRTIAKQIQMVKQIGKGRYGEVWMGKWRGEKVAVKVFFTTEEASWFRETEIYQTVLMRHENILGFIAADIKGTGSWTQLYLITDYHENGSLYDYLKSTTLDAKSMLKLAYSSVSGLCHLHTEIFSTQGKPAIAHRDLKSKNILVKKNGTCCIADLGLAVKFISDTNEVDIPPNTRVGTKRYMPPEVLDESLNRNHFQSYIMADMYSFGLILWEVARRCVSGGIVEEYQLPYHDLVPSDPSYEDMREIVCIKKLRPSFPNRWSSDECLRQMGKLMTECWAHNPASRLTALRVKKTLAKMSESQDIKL
Chain of Receptor-type tyrosine-protein kinase FLT3 (Homo sapiens), P36888 [UNDEFINED MUTATION] (P36888 whole entry, looked up, change not shown): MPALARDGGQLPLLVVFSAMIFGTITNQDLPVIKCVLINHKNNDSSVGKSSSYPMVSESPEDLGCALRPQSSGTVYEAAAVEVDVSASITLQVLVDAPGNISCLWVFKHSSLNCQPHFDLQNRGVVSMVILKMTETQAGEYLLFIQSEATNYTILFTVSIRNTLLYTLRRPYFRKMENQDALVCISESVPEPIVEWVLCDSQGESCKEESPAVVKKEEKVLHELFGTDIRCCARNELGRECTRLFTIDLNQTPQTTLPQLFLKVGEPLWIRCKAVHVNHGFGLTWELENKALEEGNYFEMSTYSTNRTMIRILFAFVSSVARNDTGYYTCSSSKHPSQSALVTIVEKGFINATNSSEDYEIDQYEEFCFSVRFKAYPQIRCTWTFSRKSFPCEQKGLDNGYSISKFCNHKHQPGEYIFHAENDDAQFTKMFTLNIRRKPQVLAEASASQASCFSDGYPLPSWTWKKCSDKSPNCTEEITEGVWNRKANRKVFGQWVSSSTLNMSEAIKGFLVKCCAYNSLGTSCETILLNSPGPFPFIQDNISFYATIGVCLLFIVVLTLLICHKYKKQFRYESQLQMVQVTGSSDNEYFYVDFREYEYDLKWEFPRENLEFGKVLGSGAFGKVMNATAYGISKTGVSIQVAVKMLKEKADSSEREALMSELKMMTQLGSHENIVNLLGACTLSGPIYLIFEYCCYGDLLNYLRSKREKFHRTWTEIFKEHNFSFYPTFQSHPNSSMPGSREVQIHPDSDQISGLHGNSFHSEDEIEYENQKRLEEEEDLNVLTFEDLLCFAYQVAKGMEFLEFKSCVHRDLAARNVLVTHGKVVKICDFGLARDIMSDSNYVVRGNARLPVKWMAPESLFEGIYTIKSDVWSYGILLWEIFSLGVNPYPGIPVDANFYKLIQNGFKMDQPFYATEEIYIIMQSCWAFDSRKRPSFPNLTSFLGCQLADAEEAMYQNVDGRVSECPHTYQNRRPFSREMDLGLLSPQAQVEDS
Chain of Receptor-type tyrosine-protein kinase FLT3 (Homo sapiens) (P36888 whole entry): as the sequence (P36888 whole entry, looked up, change not shown) above
Chain of Serine/threonine-protein kinase PLK4 (Homo sapiens) (O00444 whole entry): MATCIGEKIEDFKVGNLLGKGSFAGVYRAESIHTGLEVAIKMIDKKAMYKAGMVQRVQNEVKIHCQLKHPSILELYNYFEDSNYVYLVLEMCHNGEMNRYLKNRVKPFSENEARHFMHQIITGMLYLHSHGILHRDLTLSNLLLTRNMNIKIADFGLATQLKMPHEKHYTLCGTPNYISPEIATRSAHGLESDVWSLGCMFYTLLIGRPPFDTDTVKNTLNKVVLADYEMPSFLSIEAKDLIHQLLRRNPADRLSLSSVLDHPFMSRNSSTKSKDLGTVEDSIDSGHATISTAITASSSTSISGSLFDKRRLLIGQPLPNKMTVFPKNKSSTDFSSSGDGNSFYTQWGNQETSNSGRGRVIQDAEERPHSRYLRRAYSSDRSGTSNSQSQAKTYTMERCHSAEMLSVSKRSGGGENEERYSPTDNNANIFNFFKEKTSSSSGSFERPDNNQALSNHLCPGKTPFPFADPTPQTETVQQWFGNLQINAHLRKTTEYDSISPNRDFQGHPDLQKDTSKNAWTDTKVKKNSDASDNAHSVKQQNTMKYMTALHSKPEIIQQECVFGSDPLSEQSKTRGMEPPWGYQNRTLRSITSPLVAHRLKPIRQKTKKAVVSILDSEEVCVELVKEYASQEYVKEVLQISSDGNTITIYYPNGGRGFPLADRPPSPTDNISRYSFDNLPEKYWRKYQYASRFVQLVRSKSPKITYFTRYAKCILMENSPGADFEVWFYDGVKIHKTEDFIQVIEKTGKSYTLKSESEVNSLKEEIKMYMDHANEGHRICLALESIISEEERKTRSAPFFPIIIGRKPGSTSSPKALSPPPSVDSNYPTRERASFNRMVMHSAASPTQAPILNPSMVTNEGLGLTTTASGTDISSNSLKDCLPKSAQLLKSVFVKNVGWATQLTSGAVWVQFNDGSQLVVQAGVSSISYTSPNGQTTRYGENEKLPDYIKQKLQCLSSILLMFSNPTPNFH

Cn1cc(Cl)c2c(Oc3c(F)cc(Nc4cc(Cl)nc(N)n4)cc3F)ccnc21 [BAY-4900]
inactive: residual activity [1] 86% | residual activity [2] 83% | residual activity [3] 100% | residual activity [4] 79% | inhibition [5] 1.05% | residual activity [6] 83% | inhibition [7] -2.51% | residual activity [8] 92% | residual activity [9] 72% | residual activity [10] 100% | residual activity [11] 75% | residual activity [12] 88% | residual activity [13] 100% | residual activity [14] 90% | residual activity [15] 78% | residual activity [16] 100% | residual activity [17] 100% | residual activity [18] 100% | residual activity [19] 89% | residual activity [20] 79% | residual activity [21] 100% | residual activity [22] 82% | residual activity [23] 75% | residual activity [24] 98% | residual activity [25] 100%

Cc1c[nH]c2nccc(Oc3c(F)cc(Nc4cc(Cl)nc(N)n4)cc3F)c12 [BAY-549]
inactive: residual activity [1] 68% | residual activity [2] 82% | residual activity [3] 97% | residual activity [4] 87% | inhibition [5] -4.56% | residual activity [6] 75% | inhibition [7] 6.86% | residual activity [8] 69% | residual activity [9] 95% | residual activity [10] 100% | residual activity [11] 67% | residual activity [12] 91% | residual activity [13] 100% | residual activity [14] 100% | residual activity [15] 82% | residual activity [16] 100% | residual activity [17] 100% | residual activity [18] 100% | residual activity [19] 55% | residual activity [20] 95% | residual activity [21] 100% | residual activity [22] 76% | residual activity [23] 65% | residual activity [24] 78% | residual activity [25] 91%
